Assay results from ChEMBL document CHEMBL1201862, “PubChem BioAssay data set” (2004).
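Following 48 hours of exposure in 96-well plates, responses at five concentrations were used to interpolate endpoints linearly. Abbreviation: GI50, concentration required for 50% inhibition of growth.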 The source made the active and inactive calls. Rule as the data show it: active = GI50 up to about 1.1 µM and inactive = higher. Residues, ends and D or L forms follow the SMILES beside them. *: point of attachment. Cbz = O=C(OCc1ccccc1)*; Boc = CC(C)(C)OC(=O)*; OSu = O=C1CCC(=O)N1O*; Bn = c1ccc(C*)cc1

Legend:
Assay in all cases: NCI anticancer screen, dose series, 48 h
MDA-N = test system: MDA-N
CAKI-1 = test system: CAKI-1
MCF7 = test system: MCF7
NCI-H226 = test system: NCI-H226
M14 = test system: M14
DU-145 = test system: DU-145
U-251 = test system: U-251
ACHN = test system: ACHN
OVCAR-3 = test system: OVCAR-3
RPMI-8226 = test system: RPMI-8226
LOX IMVI = test system: LOX IMVI
KM12 = test system: KM12
MDA-MB-435 = test system: MDA-MB-435
HCC 2998 = test system: HCC 2998
HCT-116 = test system: HCT-116
IGROV-1 = test system: IGROV-1
UO-31 = test system: UO-31
NCI-H522 = test system: NCI-H522
Malme-3M = test system: Malme-3M
MDA-MB-231 = test system: MDA-MB-231

Measured: GI50

N#Cc1c(N2CCOCC2)ncn(-c2ccccc2)c1=O
inactive: MDA-N > 100 µM | CAKI-1 > 100 µM | MCF7 > 100 µM | NCI-H226 > 100 µM | M14 > 100 µM | DU-145 > 100 µM | U-251 > 100 µM | ACHN > 100 µM | OVCAR-3 > 100 µM | RPMI-8226 > 100 µM | LOX IMVI > 100 µM | KM12 > 100 µM | MDA-MB-435 > 100 µM | HCC 2998 > 100 µM | HCT-116 > 100 µM | IGROV-1 63.4 µM | UO-31 59.4 µM

CCOC(=O)CCC(C(=O)OCC)n1nc2ccc(Nc3c(C)[n+]([O-])c4ccc(Cl)cc4[n+]3[O-])cc2n1 (configuration not stated)
inactive: MDA-N 42.8 µM | CAKI-1 33.1 µM | MCF7 24.1 µM | NCI-H226 20.3 µM | NCI-H522 30.1 µM | M14 24.1 µM | DU-145 20.1 µM | U-251 15 µM | ACHN 15.8 µM | OVCAR-3 24.9 µM | RPMI-8226 44.9 µM | LOX IMVI 14.4 µM | Malme-3M 30.1 µM | KM12 56.8 µM | MDA-MB-435 30.2 µM | HCC 2998 2.93 µM | HCT-116 20.6 µM | IGROV-1 42.4 µM | UO-31 15.5 µM

c1cc(-c2ccc(-c3ccsc3)s2)cs1
inactive: MDA-N > 100 µM | CAKI-1 45.4 µM | MCF7 50.5 µM | NCI-H226 47.5 µM | NCI-H522 > 100 µM | M14 31 µM | DU-145 > 100 µM | U-251 19.5 µM | ACHN 35.9 µM | OVCAR-3 > 100 µM | RPMI-8226 > 100 µM | LOX IMVI 66.7 µM | KM12 > 10 µM | MDA-MB-435 > 100 µM | HCC 2998 > 100 µM | HCT-116 > 100 µM | IGROV-1 80.2 µM | UO-31 28.1 µM

COc1ccc(-c2cc(=O)c3ccccc3o2)cc1N
inactive: CAKI-1 18.7 µM | NCI-H226 > 100 µM | NCI-H522 20.5 µM | M14 27.1 µM | U-251 69.3 µM | ACHN 37.1 µM | OVCAR-3 31.8 µM | RPMI-8226 44.8 µM | LOX IMVI 34.6 µM | Malme-3M > 100 µM | KM12 29.3 µM | HCC 2998 38 µM | HCT-116 32.8 µM | IGROV-1 55.5 µM | UO-31 19.9 µM

CCCC(=O)OC[n+]1ccc2c(C)c3[nH]c4ccc(OC)cc4c3c(C)c2c1
inactive: Malme-3M 1.45 µM | UO-31 1.74 µM
active: CAKI-1 0.908 µM | NCI-H226 0.444 µM | NCI-H522 1.09 µM | M14 0.708 µM | U-251 0.391 µM | ACHN 0.215 µM | OVCAR-3 0.873 µM | RPMI-8226 0.0296 µM | LOX IMVI 0.23 µM | KM12 0.337 µM | HCC 2998 0.482 µM | HCT-116 0.0552 µM | IGROV-1 0.625 µM

C[C@]12CC[C@H](O)CC1=CC[C@@H]1[C@@H]2CC[C@]2(C)/C(=N/OCCN3CCCC3)CC[C@@H]12
inactive: MDA-N 17.9 µM | CAKI-1 20.9 µM | MCF7 19.1 µM | MDA-MB-231 19.9 µM | NCI-H226 14.5 µM | NCI-H522 13 µM | U-251 17.5 µM | ACHN 25.5 µM | OVCAR-3 16.5 µM | RPMI-8226 15.2 µM | LOX IMVI 19.1 µM | Malme-3M 14.1 µM | KM12 13.7 µM | MDA-MB-435 15.8 µM | HCC 2998 22.3 µM | HCT-116 14.9 µM | IGROV-1 16.2 µM | UO-31 16.7 µM

Cc1ccc(NC(=O)c2cccc([N+](=O)[O-])c2O)c([N+](=O)[O-])c1
inactive: CAKI-1 29.5 µM | NCI-H226 3.29 µM | NCI-H522 14.1 µM | M14 16.7 µM | U-251 14.3 µM | ACHN 16.4 µM | OVCAR-3 18.9 µM | RPMI-8226 8.69 µM | LOX IMVI 11.5 µM | Malme-3M 14.9 µM | KM12 10.6 µM | HCC 2998 15.9 µM | HCT-116 9.38 µM | IGROV-1 20.9 µM | UO-31 24.1 µM

CC(C)(C)OC(=O)NC(Cc1ccc(OCc2ccccc2)cc1)C(=O)NC(CCCCNC(=O)OCc1ccccc1)C(=O)NC(CCCCNC(=O)OCc1ccccc1)C(=O)ON1C(=O)CCC1=O (configuration not stated) (Boc-Tyr(Bn)-Lys(Cbz)-Lys(Cbz)-OSu; configuration not given here)
inactive: MDA-N 16.6 µM | CAKI-1 64.4 µM | MCF7 18.9 µM | NCI-H522 16.4 µM | M14 > 100 µM | DU-145 88.5 µM | U-251 16.3 µM | ACHN 38.5 µM | RPMI-8226 > 100 µM | Malme-3M 54.3 µM | KM12 46.1 µM | MDA-MB-435 33.1 µM | HCT-116 24.9 µM | IGROV-1 31.5 µM | UO-31 > 100 µM
